{"source": "patent US20220202799A1", "about": "“PHARMACEUTICAL FORMULATIONS CONTAINING P2Y14 ANTAGONISTS” (priority 2019, published 2022)", "key": {"[1]": {"experiment": "Urine concentrations, 24-hour continuous intravenous infusion", "type": "in vivo, Sprague-Dawley rats", "conditions": "for Total amount in urine: all intervals; for Total amount in urine / Amount in urine: individual animals", "method": "(§1) The safety and pharmacokinetics of PPTN (KB-1801) in rats receiving continuous intravenous injections of SBECD-containing solutions were analyzed. Three cohorts of six male and six female rats each were given continuous intravenous infusion of PPTN (KB-1801) at 10 mg/kg/day, 30 mg/kg/day or 100 mg/kg/day in a dosing solution containing PPTN at 0.25 mg/mL, 0.75 mg/mL or 2.5 mg/mL and SBECD at about 3.8%. Dosing volume was 40 mIkg/day."}, "[2]": {"experiment": "Urine concentrations, 72-hour continuous intravenous infusion", "type": "in vivo, Sprague-Dawley rats", "conditions": "individual animals; for Total amount in urine: all intervals", "method": "as §1"}, "[3]": {"conditions": "72-hour IV infusion 10 mg/kg/day, male rats, interval 0-4 h"}, "[4]": {"conditions": "72-hour IV infusion 10 mg/kg/day, male rats, interval 4-9 h"}, "[5]": {"conditions": "72-hour IV infusion 10 mg/kg/day, male rats, interval 20-24 h"}, "[6]": {"conditions": "72-hour IV infusion 10 mg/kg/day, male rats, interval 44-48 h"}, "[7]": {"conditions": "72-hour IV infusion 10 mg/kg/day, male rats, interval 68-72 h"}, "[8]": {"conditions": "72-hour IV infusion 10 mg/kg/day, male rats, interval 92-96 h"}}, "note": "“And” between values parts separate entries of the source, which are not always exact repeats. Identical values can stand only once.", "data": [{"molecule": "O=C(O)c1cc(-c2ccc(C3CCNCC3)cc2)c2ccc(-c3ccc(C(F)(F)F)cc3)cc2c1", "note": "[KB-1801, 4-[4-(piperidin-4-yl)phenyl]-7-[4-(trifluoromethyl)phenyl]-2-naphthoic acid]", "values": [{"measurement": "Total amount in urine", "setting": "[1]; 24-hour IV infusion 10 mg/kg, female rats", "result": "6.29 µg and 1.92 µg and 6.27 µg and 24.6 µg and 20.3 µg and 2.33 µg"}, {"measurement": "Amount in urine", "setting": "[1]; 24-hour IV infusion 10 mg/kg, female rats, interval 0-4 h", "result": "0.16 µg and 0.14 µg and 0.81 µg and 4.98 µg and 2.11 µg"}, {"measurement": "Amount in urine", "setting": "[1]; 24-hour IV infusion 10 mg/kg, female rats, interval 4-9 h", "result": "5.74 µg and 1.32 µg and 11.2 µg and 0.05 µg and 0.23 µg"}, {"measurement": "Amount in urine", "setting": "[1]; 24-hour IV infusion 10 mg/kg, female rats, interval 9-24 h", "result": "0.39 µg and 0.46 µg and 5.46 µg and 13.4 µg and 15.3 µg"}, {"measurement": "Total amount in urine", "setting": "[1]; 24-hour IV infusion 30 mg/kg, female rats", "result": "22.6 µg and 2.00 µg and 6.83 µg and 40.2 µg and 30.9 µg and 57.2 µg"}, {"measurement": "Amount in urine", "setting": "[1]; 24-hour IV infusion 30 mg/kg, female rats, interval 0-4 h", "result": "8.76 µg and 2.00 µg and 0.003 µg and 7.08 µg and 0.71 µg"}, {"measurement": "Amount in urine", "setting": "[1]; 24-hour IV infusion 30 mg/kg, female rats, interval 4-9 h", "result": "9.17 µg and 16.2 µg and 22.6 µg and 29.6 µg"}, {"measurement": "Amount in urine", "setting": "[1]; 24-hour IV infusion 30 mg/kg, female rats, interval 9-24 h", "result": "27.6 µg and 4.65 µg and 6.83 µg and 17.0 µg and 7.56 µg"}, {"measurement": "Total amount in urine", "setting": "[1]; 24-hour IV infusion 30 mg/kg, male rats", "result": "61.7 µg and 63.3 µg and 9.64 µg and 18.1 µg and 243.3 µg and 31.4 µg"}, {"measurement": "Amount in urine", "setting": "[1]; 24-hour IV infusion 30 mg/kg, male rats, interval 0-4 h", "result": "0.01 μg (3×) and 2.03 μg and 0.001 μg and 33.9 μg"}, {"measurement": "Amount in urine", "setting": "[1]; 24-hour IV infusion 30 mg/kg, male rats, interval 4-9 h", "result": "26.0 µg and 43.8 µg and 5.65 µg and 0.003 µg and 11.8 µg and 21.8 µg"}, {"measurement": "Amount in urine", "setting": "[1]; 24-hour IV infusion 30 mg/kg, male rats, interval 9-24 h", "result": "9.64 µg and 35.7 µg and 17.4 µg and 3.98 µg and 18.1 µg and 197.6 µg"}, {"measurement": "Total amount in urine", "setting": "[1]; 24-hour IV infusion 100 mg/kg, female rats", "result": "45.8 µg and 48.8 µg and 64.7 µg and 43.0 µg and 149.9 µg and 171.6 µg"}, {"measurement": "Amount in urine", "setting": "[1]; 24-hour IV infusion 100 mg/kg, female rats, interval 0-4 h", "result": "0.02 µg and 0.01 µg and 9.75 µg and 3.61 µg and 25.6 µg and 10.7 µg"}, {"measurement": "Amount in urine", "setting": "[1]; 24-hour IV infusion 100 mg/kg, female rats, interval 4-9 h", "result": "1.83 µg and 19.3 µg and 5.96 µg and 0.01 µg and 27.4 µg"}, {"measurement": "Amount in urine", "setting": "[1]; 24-hour IV infusion 100 mg/kg, female rats, interval 9-24 h", "result": "133.5 µg and 43.9 µg and 48.8 µg and 35.7 µg and 33.4 µg and 124.3 µg"}, {"measurement": "Total amount in urine", "setting": "[1]; 24-hour IV infusion 100 mg/kg, male rats", "result": "239.6 µg and 82.2 µg and 0.001 µg and 186.8 µg and 228.4 µg and 526.5 µg"}, {"measurement": "Amount in urine", "setting": "[1]; 24-hour IV infusion 100 mg/kg, male rats, interval 0-4 h", "result": "0.12 µg and 40.8 µg and 51.3 µg"}, {"measurement": "Amount in urine", "setting": "[1]; 24-hour IV infusion 100 mg/kg, male rats, interval 4-9 h", "result": "33.6 µg and 26.0 µg and 0.001 µg and 24.1 µg and 32.1 µg and 71.5 µg"}, {"measurement": "Amount in urine", "setting": "[1]; 24-hour IV infusion 100 mg/kg, male rats, interval 9-24 h", "result": "403.7 µg and 206.0 µg and 56.1 µg and 162.6 µg and 155.6 µg"}, {"measurement": "Total amount in urine, individual animal", "setting": "[1]; male Sprague-Dawley rats, 24-hour intravenous infusion at 10 mg/kg, 0-24 h, 10 mg/kg", "result": "45.5 µg and 49.8 µg and 14.8 µg and 67.4 µg and 19.0 µg and 3.25 µg"}, {"measurement": "Amount in urine, individual animal", "setting": "[1]; male Sprague-Dawley rats, 24-hour intravenous infusion at 10 mg/kg, time interval 0-4 h, 10 mg/kg", "result": "5.36 µg and 2.11 µg and 2.02 µg and 11.1 µg and 0.03 µg"}, {"measurement": "Amount in urine, individual animal", "setting": "[1]; male Sprague-Dawley rats, 24-hour intravenous infusion at 10 mg/kg, time interval 4-9 h, 10 mg/kg", "result": "4.47 µg and 0.35 µg and 6.15 µg and 0.52 µg"}, {"measurement": "Amount in urine, individual animal", "setting": "[1]; male Sprague-Dawley rats, 24-hour intravenous infusion at 10 mg/kg, time interval 9-24 h, 10 mg/kg", "result": "3.23 µg and 35.7 µg and 47.3 µg and 6.64 µg and 56.3 µg and 18.5 µg"}, {"measurement": "Urine concentration compared with plasma", "setting": "[1]; rats, continuous intravenous infusion for 24 or 72 hours", "result": "generally in excess of plasma concentrations"}, {"measurement": "Total amount in urine", "setting": "[2]; 72-hour IV infusion 10 mg/kg/day, female rats", "result": "27.3 µg and 16.4 µg and 10.5 µg and 18.5 µg and 20.9 µg and 29.4 µg"}, {"measurement": "Total amount in urine", "setting": "[2]; 72-hour IV infusion 10 mg/kg/day, male rats", "result": "54.2 µg and 46.1 µg and 62.5 µg and 83.7 µg and 74.4 µg and 60.9 µg"}, {"measurement": "Amount in urine", "setting": "[2]; [3]", "result": "6.09 µg and 4.08 µg"}, {"measurement": "Urine Conc.", "setting": "[2]; [3]", "result": "6.09 µg/mL and 8.16 µg/mL and 3.50 µg/mL and 7.91 µg/mL"}, {"measurement": "Amount in urine", "setting": "[2]; [4]", "result": "11.5 µg and 5.46 µg and 8.50 µg and 6.95 µg"}, {"measurement": "Urine Conc.", "setting": "[2]; [4]", "result": "7.64 µg/mL and 5.46 µg/mL and 17.0 µg/mL and 6.95 µg/mL and 15.8 µg/mL"}, {"measurement": "Amount in urine", "setting": "[2]; [5]", "result": "20.7 µg and 10.0 µg and 7.20 µg and 30.9 µg"}, {"measurement": "Urine Conc.", "setting": "[2]; [5]", "result": "20.7 µg/mL and 20.1 µg/mL and 24.0 µg/mL and 10.3 µg/mL and 19.4 µg/mL"}, {"measurement": "Amount in urine", "setting": "[2]; [6]", "result": "2.48 µg and 14.1 µg and 22.9 µg"}, {"measurement": "Urine Conc.", "setting": "[2]; [6]", "result": "24.8 µg/mL and 14.1 µg/mL and 45.9 µg/mL and 13.7 µg/mL"}, {"measurement": "Amount in urine", "setting": "[2]; [7]", "result": "19.3 µg and 23.2 µg and 28.5 µg and 22.7 µg"}, {"measurement": "Urine Conc.", "setting": "[2]; [7]", "result": "19.3 µg/mL and 23.2 µg/mL and 28.5 µg/mL and 22.7 µg/mL and 20.9 µg/mL"}, {"measurement": "Amount in urine", "setting": "[2]; [8]", "result": "0.07 µg and 0.15 µg and 1.23 µg and 0.08 µg and 0.18 µg"}, {"measurement": "Urine Conc.", "setting": "[2]; [8]", "result": "0.13 µg/mL and 0.10 µg/mL and 0.62 µg/mL and 0.20 µg/mL and 0.09 µg/mL and 0.07 µg/mL"}, {"measurement": "Total amount in urine", "setting": "[2]; 72-hour IV infusion 30 mg/kg/day, female rats", "result": "75.7 μg and 78.9 μg (2×) and 66.9 μg and 80.5 μg and 131.7 μg"}, {"measurement": "Total amount in urine", "setting": "[2]; 72-hour IV infusion 30 mg/kg/day, male rats", "result": "188.0 µg and 165.1 µg and 250.3 µg and 108.4 µg and 87.4 µg and 332.4 µg"}, {"measurement": "Total amount in urine", "setting": "[2]; 72-hour IV infusion 100 mg/kg/day, female rats", "result": "251.8 µg and 191.6 µg and 78.7 µg and 198.3 µg and 151.4 µg and 353.9 µg"}, {"measurement": "Total amount in urine", "setting": "[2]; 72-hour IV infusion 100 mg/kg/day, male rats", "result": "337.1 µg and 155.1 µg and 785.2 µg and 453.6 µg and 537.2 µg and 438.9 µg"}]}]}
